Values quoted from earlier work, collected in patent publication US20240115547A1, “PSYCHOTROPIC AGENTS AND USES THEREOF” (LB PHARMACEUTICALS INC., priority 2021, published 2024).

Columns and labels:
D1 receptor subtype = D1 receptor subtype (Homo sapiens, UniProt P21728); conditions: cited from earlier work
D4 receptor subtype = biological target: T1, D4 receptor subtype (Homo sapiens, UniProt P21917); conditions: cited from earlier work
T1 sequence (P21917 1-419): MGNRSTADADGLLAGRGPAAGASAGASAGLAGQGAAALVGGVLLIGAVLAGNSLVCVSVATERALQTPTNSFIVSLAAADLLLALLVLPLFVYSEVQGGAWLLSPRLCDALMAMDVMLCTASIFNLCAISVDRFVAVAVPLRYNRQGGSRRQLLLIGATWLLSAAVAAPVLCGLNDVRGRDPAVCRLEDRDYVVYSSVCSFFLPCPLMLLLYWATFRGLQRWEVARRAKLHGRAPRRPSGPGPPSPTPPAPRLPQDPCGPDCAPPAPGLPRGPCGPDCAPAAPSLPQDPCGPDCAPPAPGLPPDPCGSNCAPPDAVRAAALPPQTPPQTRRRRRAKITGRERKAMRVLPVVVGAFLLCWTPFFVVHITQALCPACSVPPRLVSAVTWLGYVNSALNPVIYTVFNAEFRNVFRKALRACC

D5 receptor subtype = D5 receptor subtype (Homo sapiens, UniProt P21918); conditions: cited from earlier work
5-HT2a receptor = 5-HT2a receptor (Homo sapiens, UniProt P28223); conditions: compared to other antipsychotics; cited from earlier work
Striatal D2/D3 Receptor = conditions: in vivo; cited from earlier work
[1] = administration of 50 mg amisulpride, previously published (FIG. 4A); cited from earlier work
[2] = 2014 study; cited from earlier work

D5 receptor subtype, sequence (P21918 whole entry): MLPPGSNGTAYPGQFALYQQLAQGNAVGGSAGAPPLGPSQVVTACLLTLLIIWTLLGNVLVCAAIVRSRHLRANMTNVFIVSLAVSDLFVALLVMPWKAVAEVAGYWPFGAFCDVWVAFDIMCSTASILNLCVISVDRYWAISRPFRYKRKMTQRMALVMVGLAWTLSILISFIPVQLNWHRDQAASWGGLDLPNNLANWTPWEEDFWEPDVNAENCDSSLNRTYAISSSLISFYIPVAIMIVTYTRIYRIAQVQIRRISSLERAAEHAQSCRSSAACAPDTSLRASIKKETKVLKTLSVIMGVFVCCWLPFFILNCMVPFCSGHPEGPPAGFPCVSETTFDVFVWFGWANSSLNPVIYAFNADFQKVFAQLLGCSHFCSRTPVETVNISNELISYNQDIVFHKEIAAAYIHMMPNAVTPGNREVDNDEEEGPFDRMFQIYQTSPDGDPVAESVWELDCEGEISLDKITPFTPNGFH
D1 receptor subtype, sequence (P21728 whole entry): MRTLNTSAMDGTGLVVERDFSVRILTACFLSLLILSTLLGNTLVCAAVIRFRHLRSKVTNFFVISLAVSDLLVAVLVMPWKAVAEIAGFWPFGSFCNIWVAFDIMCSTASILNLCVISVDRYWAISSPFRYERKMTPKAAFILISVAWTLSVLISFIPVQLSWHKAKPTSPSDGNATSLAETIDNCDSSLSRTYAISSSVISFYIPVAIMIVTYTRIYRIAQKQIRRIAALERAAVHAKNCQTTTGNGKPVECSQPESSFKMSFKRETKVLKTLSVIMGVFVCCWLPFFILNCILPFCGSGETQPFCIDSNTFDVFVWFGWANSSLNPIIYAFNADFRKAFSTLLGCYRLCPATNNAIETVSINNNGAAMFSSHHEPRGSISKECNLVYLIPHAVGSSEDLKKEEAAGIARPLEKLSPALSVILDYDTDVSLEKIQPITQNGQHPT
5-HT2a receptor, sequence (P28223 whole entry): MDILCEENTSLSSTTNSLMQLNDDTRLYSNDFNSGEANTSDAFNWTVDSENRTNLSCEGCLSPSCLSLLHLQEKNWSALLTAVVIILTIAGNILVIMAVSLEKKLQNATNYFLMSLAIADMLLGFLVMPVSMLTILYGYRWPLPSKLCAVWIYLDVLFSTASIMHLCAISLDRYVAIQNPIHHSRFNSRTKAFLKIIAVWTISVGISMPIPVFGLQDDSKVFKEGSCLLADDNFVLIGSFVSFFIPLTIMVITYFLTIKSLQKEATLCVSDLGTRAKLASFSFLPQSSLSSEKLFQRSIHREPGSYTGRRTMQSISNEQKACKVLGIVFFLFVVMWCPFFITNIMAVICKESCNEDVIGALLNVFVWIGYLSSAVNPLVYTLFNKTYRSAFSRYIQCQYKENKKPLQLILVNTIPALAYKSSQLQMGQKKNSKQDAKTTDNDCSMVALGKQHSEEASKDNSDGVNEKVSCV

For CCN1CCCC1CNC(=O)c1cc(S(=O)(=O)CC)c(N)cc1OC (stereo not shown) [amisulpride, 4-amino-N-(((1-ethyl-2-pyrrolidinyl)methyl)-5-(ethylsulfonyl))-2-methoxybenzamide], the “affinity for D1 receptor subtype” value (D1 receptor subtype) is listed as “without any affinity”, the “affinity for D4 receptor subtype” value (D4 receptor subtype) is listed as “without any affinity” and the “affinity for D5 receptor subtype” value (D5 receptor subtype) is listed as “without any affinity”. For the same compound, the “activity at the 5-HT2a receptor” value (5-HT2a receptor) was “not noted to have any activity”, the “dose required for 75% dopamine (e.g., D2/D3) RO” value (Striatal D2/D3 Receptor) was “more than 400 mg” and the AUC [1] was 603 ngh/mL. For the same compound, the “passive diffusion across a PAMPA membrane (measured as Pe)” value [2] was “lowest of 30 psychiatric drugs tested”.
